Test results: publication PMC10593844, “Structure-function analyses reveal key molecular determinants of HIV-1 CRF01_AE resistance to the entry inhibitor temsavir” (Nature Communications, 2023)
Where “and” joins values, the source holds several entries; their conditions need not be identical. Equal entries are not always repeated. Where two headings read alike, the source gives them in different places.

Experiments:
[1] = tested on: HIV-1 pseudovirus bearing EnvJR-FL WT; test: organism not typed; assay type: cell-based; settings: for Relative infectivity (%): JRFL WT
[2] = tested on: HIV-1 pseudovirus bearing EnvJR-FL S375T; test: organism not typed; assay type: cell-based; settings: for Relative infectivity (%): JRFL S375T
[3] = tested on: HIV-1 pseudovirus bearing EnvJR-FL S375H; test: organism not typed; assay type: cell-based; settings: for Relative infectivity (%): JRFL S375H
[4] = tested on: HIV-1 pseudovirus bearing EnvJR-FL S375Y; test: organism not typed; assay type: cell-based; settings: for Relative infectivity (%): JRFL S375Y
[5] = tested on: HIV-1 pseudovirus bearing CRF01_AE 92TH023 Env WT; test: organism not typed; assay type: cell-based; settings: for Relative infectivity (%): 92TH023 WT
[6] = tested on: HIV-1 pseudovirus bearing CRF01_AE 92TH023 Env LM; test: organism not typed; assay type: cell-based; settings: for Relative infectivity (%): 92TH023 LM
[7] = tested on: HIV-1 pseudovirus bearing CRF01_AE CM244 Env LM; test: organism not typed; assay type: cell-based; settings: for Relative infectivity (%): CM244 LM
[8] = tested on: HIV-1 pseudovirus bearing clade B YU2 Env WT; test: organism not typed; assay type: cell-based; settings: for Relative infectivity (%): YU2 WT
[9] = tested on: HIV-1 pseudovirus bearing clade B YU2 Env S375T; test: organism not typed; assay type: cell-based; settings: for Relative infectivity (%): YU2 S375T
[10] = tested on: HIV-1 pseudovirus bearing clade B YU2 Env Y61H; assay type: cell-based
[11] = tested on: HIV-1JR-FL Env WT on HEK293T cells; assay type: binding; settings: JRFL WT; temsavir 10 µM; listed as TMR
[12] = tested on: HIV-1JR-FL Env S375T on HEK293T cells; assay type: binding; settings: JRFL S375T; temsavir 10 µM; listed as TMR
[13] = tested on: HIV-1JR-FL Env S375H on HEK293T cells; assay type: binding; settings: JRFL S375H; temsavir 10 µM; listed as TMR
[14] = tested on: HIV-1JR-FL Env S375Y on HEK293T cells; assay type: binding; settings: JRFL S375Y; temsavir 10 µM; listed as TMR
[15] = tested on: CRF01_AE 92TH023 Env WT on HEK293T cells; assay type: binding; settings: 92TH023 WT; temsavir 10 µM; listed as TMR
[16] = tested on: CRF01_AE 92TH023 Env H375T on HEK293T cells; assay type: binding; settings: 92TH023 H375T; temsavir 10 µM; listed as TMR
[17] = tested on: CRF01_AE CM244 Env WT on HEK293T cells; assay type: binding; settings: temsavir 10 µM, listed as TMR
[18] = biological target: T1, clade B YU2 Env WT on HEK293T cells (Human immunodeficiency virus type 1 group M subtype B, UniProt P35961); assay type: binding; settings: temsavir 10 µM, listed as TMR
T1 construct: expressed in transfected cells; host or cells: HEK293T (pSVIIIenv co-transfected with a Tat expressor)

[19] = biological target: T2, clade B YU2 Env S375H on HEK293T cells (Human immunodeficiency virus type 1 group M subtype B, UniProt P35961, S370H); assay type: binding; settings: temsavir 10 µM, listed as TMR
T2 construct: expressed in transfected cells; host or cells: HEK293T (pSVIIIenv co-transfected with a Tat expressor)

[20] = tested on: clade B YU2 Env LM on HEK293T cells; assay type: binding; settings: temsavir 10 µM, listed as TMR
[21] = tested on: clade B YU2 Env LMST on HEK293T cells; assay type: binding; settings: temsavir 10 µM, listed as TMR
[22] = tested on: clade B YU2 Env LMSH on HEK293T cells; assay type: binding; settings: temsavir 10 µM, listed as TMR
[23] = tested on: panel of 208 HIV-1 Envs from different clades; settings: cited from earlier work; for IC50: read-out: Neutralization IC50
HIV-1 Env with Ile475 = tested on: HIV-1 Env with Ile475; design: method as in PMID 28825711; settings: Ile475 substitution; cited from earlier work

## COc1cnc(-n2cnc(C)n2)c2[nH]cc(C(=O)C(=O)N3CCN(C(=O)c4ccccc4)CC3)c12 [Temsavir, temsavir]
[1]; Cf2Th-CD4/CCR5
  IC50: 0.00036 µM
[1]; Temsavir 0.1 nM
  Relative infectivity (%): 88.4413% and 81.9041% and 67.8312%
[1]; Temsavir 5 nM
  Relative infectivity (%): 0.09027% and 0.782% and 0.1663%
[1]; Temsavir 25 nM
  Relative infectivity (%): 0.07266% and 0.1285% and 0.09925% and 0.3863%
[1]; Temsavir 100 nM
  Relative infectivity (%): 0.1307% and 0.3086% and 0.1992% and 0.5674%
[2]; Cf2Th-CD4/CCR5
  IC50: 0.00043 µM
[2]; Temsavir 0.1 nM
  Relative infectivity (%): 69.2755% and 98.112% and 68.2496%
[2]; Temsavir 5 nM
  Relative infectivity (%): 1.701% and 2.403% and 0.1043%
[2]; Temsavir 25 nM
  Relative infectivity (%): 0.2129% and 0.1167% and 0.02715% and 9.3062%
[2]; Temsavir 100 nM
  Relative infectivity (%): 0.02755% and 0.0119% and 0.01656% and 2.113%
[3]; Cf2Th-CD4/CCR5
  IC50: > 0.1 µM
[3]; Temsavir 0.1 nM
  Relative infectivity (%): 97.5172% and 99.7027% and 99.1558%
[3]; Temsavir 0.5 nM
  Relative infectivity (%): 94.7921% and 100.166% and 82.7419%
[3]; Temsavir 1 nM
  Relative infectivity (%): 92.4628% and 111.302% and 80.2089%
[3]; Temsavir 5 nM
  Relative infectivity (%): 89.7935% and 91.5252% and 60.6402%
[3]; Temsavir 25 nM
  Relative infectivity (%): 193.211% and 192.383% and 121.78% and 152.325%
[3]; Temsavir 100 nM
  Relative infectivity (%): 67.6822% and 45.331% and 44.6004% and 67.6402%
[4]; Cf2Th-CD4/CCR5
  IC50: > 0.1 µM
[4]; Temsavir 0.1 nM
  Relative infectivity (%): 95.0549% and 100.21% and 92.5783%
[4]; Temsavir 0.5 nM
  Relative infectivity (%): 93.6966% and 92.3523% and 97.9897%
[4]; Temsavir 1 nM
  Relative infectivity (%): 103.494% and 95.9187% and 99.1671%
[4]; Temsavir 5 nM
  Relative infectivity (%): 82.1418% and 84.655% and 82.6307%
[5]; Temsavir 1 nM
  Relative infectivity (%): 89.8645% and 102.181% and 86.0322%
[5]; Temsavir 5 nM
  Relative infectivity (%): 77.4465% and 120.721% and 86.7772%
[5]; Temsavir 10 nM
  Relative infectivity (%): 69.308% and 86.3374% and 95.4665%
[5]; Temsavir 50 nM
  Relative infectivity (%): 75.3192% and 101.13% and 84.1355%
[5]; Cf2Th-CD4/CCR5
  IC50: > 0.05 µM
[6]; Temsavir 1 nM
  Relative infectivity (%): 82.8885% and 105.829% and 81.5038%
[6]; Temsavir 5 nM
  Relative infectivity (%): 63.4532% and 71.1451% and 85.9246%
[6]; Temsavir 10 nM
  Relative infectivity (%): 66.9458% and 79.651% and 87.1271%
[6]; Temsavir 50 nM
  Relative infectivity (%): 76.0092% and 99.9867% and 85.6288%
[6]; Cf2Th-CD4/CCR5
  IC50: > 0.05 µM
[7]; Temsavir 1 nM
  Relative infectivity (%): 102.819% and 104.55% and 70.4862%
[7]; Temsavir 10 nM
  Relative infectivity (%): 98.1419% and 107.4% and 59.1318%
[7]; Temsavir 50 nM
  Relative infectivity (%): 106.175% and 96.9147% and 54.579%
[7]; Cf2Th-CD4/CCR5
  IC50: > 0.05 µM
[8]; Cf2Th-CD4/CCR5
  IC50: 0.00068 µM
[8]; Temsavir 1 nM, Fig 2f
  Relative infectivity (%): 27.4498% and 23.3742% and 28.1647%
[8]; Temsavir 2 nM, Fig S1
  Relative infectivity (%): 66.79% and 41.21% and 35.57%
[8]; Temsavir 5 nM, Fig 2f
  Relative infectivity (%): 1.267% and 2.642% and 1.583%
[8]; Temsavir 5 nM, Fig S1
  Relative infectivity (%): 6.29% and 2.61% and 2.85%
[8]; Temsavir 10 nM, Fig 2f
  Relative infectivity (%): 0.2419% and 0.2962% and 0.3923%
[8]; Temsavir 10 nM, Fig S1
  Relative infectivity (%): 2.59% and 2.79% and 2.69%
[8]; Temsavir 50 nM, Fig 2f
  Relative infectivity (%): 0.2461% and 0.2675% and 0.3334%
[8]; Temsavir 50 nM, Fig S1
  Relative infectivity (%): 2.66% and 2.72% and 2.93%
[8]; Temsavir 100 nM, Fig 2f
  Relative infectivity (%): 0.2542% and 0.2474% and 0.3435%
[8]; Temsavir 100 nM, Fig S1
  Relative infectivity (%): 2.55% and 3.03% and 2.93%
[9]; Cf2Th-CD4/CCR5
  IC50: 0.00073 µM
[9]; Temsavir 1 nM
  Relative infectivity (%): 32.779% and 22.5844% and 35.0676%
[9]; Temsavir 5 nM
  Relative infectivity (%): 2.479% and 1.401% and 1.77%
[9]; Temsavir 10 nM
  Relative infectivity (%): 0.4727% and 0.2789% and 0.1619%
[9]; Temsavir 50 nM
  Relative infectivity (%): 0.1346% and 0.1101% and 0.1511%
[9]; Temsavir 100 nM
  Relative infectivity (%): 0.1098% and 0.1253% and 0.1727%
[10]; Temsavir 5 nM
  Relative infectivity (%): 2.81% and 1.74% and 3.98%
[10]; Temsavir 10 nM
  Relative infectivity (%): 1.05% and 1.23% and 1.34%
[10]; Temsavir 50 nM
  Relative infectivity (%): 1.04% and 1.28% and 3.8%
[10]; Temsavir 100 nM
  Relative infectivity (%): 0.97% and 2.23% and 1.32%
[11]
  sCD4 binding (+TMR) - Fold over DMSO: 0.09994 and 0.08955 and 0.1163
[12]
  sCD4 binding (+TMR) - Fold over DMSO: 0.1797 and 0.1688 and 0.2064
[13]
  sCD4 binding (+TMR) - Fold over DMSO: 1.158 and 1.01 and 1.118
[14]
  sCD4 binding (+TMR) - Fold over DMSO: 1.015 and 0.9829 and 1.003
[15]
  sCD4 binding (+TMR) - Fold over DMSO: 0.9655 and 0.9282 and 0.9905
[16]
  sCD4 binding (+TMR) - Fold over DMSO: 0.7474 and 0.9648 and 0.9745
[17]
  sCD4 binding (+TMR) - Fold over DMSO: 1.042 and 0.9403 and 0.9549
[18]
  sCD4 binding (+TMR) - Fold over DMSO: 0.4934 and 0.673 and 0.6222
[19]
  sCD4 binding (+TMR) - Fold over DMSO: 1.163 and 1.208 and 0.9124
[20]
  sCD4 binding (+TMR) - Fold over DMSO: 0.8112 and 0.8641 and 1.018
[21]
  sCD4 binding (+TMR) - Fold over DMSO: 0.9452 and 1.1963 and 0.9128
[22]
  sCD4 binding (+TMR) - Fold over DMSO: 1.199 and 1.141 and 1.081
[23]; Fig 2a, Env strains with Y61, ref Pancera et al.
  IC50: 0.0004 µM
[23]; individual strains with H375
  IC50: > 20 µM and 18.1 µM and 4.04 µM and 8.52 µM and 12.7 µM and 4.77 µM and 2.81 µM and 13 µM and 4.13 µM and 5.13 µM
[23]; individual strains with S375
  IC50: 0.012 µM
[23]; individual strains, CRF01_AE
  IC50: > 20 µM and 18.1 µM and 4.04 µM and 8.52 µM and 12.7 µM and 4.77 µM and 2.81 µM and 13 µM and 4.13 µM and 5.13 µM
[23]; whole panel, different clades
  active against % of a panel of 208 HIV-1 Envs: 91%
HIV-1 Env with Ile475
  fold reduction in temsavir activity: ~ 90 fold
